Results on twelve molecules are retold here after patent US10806744B2, “Edible composition” (Conopco, Inc., priority 2015, dated 2020).

Test [1] deals with glucose transport across differentiated Caco-2 cell monolayers. Kind of test: Glucose transport cell model: 5 mM D-glucose 15 minutes, then 25 mM for 45 minutes, cumulative glucose transport. Type of test: cell-based, human. Details: unit not given here. The conditions noted are these: duplicate. As to the method:
Caco-2 cells were cultured and routinely passaged as described in Example 1.
After the last incubation, all of the retained PBS(+) from each step (i.e. at 15, 30, 45 and 60 minutes) was assayed for glucose levels as described in Example 1, and the total cumulative glucose transport calculated. The localised changes in luminal glucose concentrations described and illustrated in example 1 are mimicked in-vitro through an initial short incubation of differentiated Caco-2 cells with a low level of D-glucose (5 mM for 15 minutes) immediately followed by a sustained incubation with a high level of D-glucose (final concentration of 25 mM for 45 minutes).
In the above table, every test pairing of a homisoflavonoid (HIF) and a flavonoid monoglucoside (FM) has 5 values reported: • 1. No Compound (NC)+NC • 2.
Synergy is achieved when the inhibition caused by the combination of HIF and FM is greater than the sum of the inhibition due to HIF alone added to the inhibition due to FM alone.

In test [2] the target is T1, SGLT1 (Homo sapiens, UniProt P13866).
T1 sequence (P13866 1-664): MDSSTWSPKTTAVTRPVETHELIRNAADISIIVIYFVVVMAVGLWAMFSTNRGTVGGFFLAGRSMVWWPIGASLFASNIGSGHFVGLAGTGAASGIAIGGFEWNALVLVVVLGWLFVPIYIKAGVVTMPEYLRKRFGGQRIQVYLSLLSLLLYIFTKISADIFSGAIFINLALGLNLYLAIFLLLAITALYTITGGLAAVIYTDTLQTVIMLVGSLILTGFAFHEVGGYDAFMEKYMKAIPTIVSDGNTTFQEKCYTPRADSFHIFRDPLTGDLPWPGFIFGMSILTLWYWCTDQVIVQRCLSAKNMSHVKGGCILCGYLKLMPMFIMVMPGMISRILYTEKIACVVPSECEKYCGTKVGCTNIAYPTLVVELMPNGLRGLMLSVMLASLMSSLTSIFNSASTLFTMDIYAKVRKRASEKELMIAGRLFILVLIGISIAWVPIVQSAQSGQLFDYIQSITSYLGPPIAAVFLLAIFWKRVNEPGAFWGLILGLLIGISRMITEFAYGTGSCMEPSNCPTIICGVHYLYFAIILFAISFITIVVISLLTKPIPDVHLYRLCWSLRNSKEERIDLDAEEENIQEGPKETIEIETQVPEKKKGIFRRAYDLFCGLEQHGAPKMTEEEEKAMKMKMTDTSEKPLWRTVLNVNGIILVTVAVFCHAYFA
Particulars: as disclosed in Table 1 of WO 2014/086632; cited from earlier work.

Test [3] concerns the target T1, SGLT1. Put plainly: Glucose transport inhibitor cell screening assay, 5 mM D-glucose for 15 minutes. The conditions noted are these: for identified as inhibitors of SGLT1: Caco-2 cell assay; for inhibition at 300 µM: Caco-2, read-out: % Glucose transport inhibiton 5 mM. For orientation: Passage across Caco-2 layers is used to estimate intestinal permeability.
Protocol: Human epithelial colorectal adenocarcinoma (Caco-2) cells were obtained from the American Type Culture Collection (ATCC) and cultured in Growth Medium consisting of Dulbecco's modified Eagle's medium (containing Glutamax-1, 4.5 g/L D-glucose and 25 mM 4-(2-hydroxyethyl)-1-piperazine ethanesulphonic acid (Hepes) (Invitrogen)), 10% foetal bovine serum (Sigma), 1% non-essential amino acids (Invitrogen) and 1 mM sodium pyruvate (Sigma)). The cells were routinely passaged at approximately 80% confluence using TrypLE™ Express Stable Trypsin-Like Enzyme (Invitrogen) to detach the cells, and seeded at approximately 114 cells per mm^2 in fresh tissue culture flasks. Only cells between the passage numbers 45 and 49 were used for experiments.
Corning® HTS Transwell® 96 well permeable insert supports (Sigma) were collagen coated with 40 μl of 50 μg/ml rat tail collagen type I (BD Biosciences) in 0.02 M acetic acid for one hour at room temperature under sterile conditions. The inserts were washed twice in phosphate buffered saline (PBS (Invitrogen)) and the Caco-2 cells seeded into the inserts at 1.0×10^6 cell/ml (75 μl per insert) in Growth Medium and 30 ml of Growth Medium added to the feeder plate below. The cells were left to attach to the collagen matrix and form monolayers over 48 hours at 37° C., 5% CO2. Both inserts and feeder plate were washed in PBS and the cells incubated with BD Entero-STIM™ Enterocyte Differentiation Medium containing MITO+™ Serum Extender solution (both BD Biosciences), 75 μl per insert and 30 ml in the feeder plate, for a further 48 hours at 37° C., 5% CO2.
Differentiated cell monolayers were washed gently in Dulbecco's Phosphate Buffered Saline containing CaCl2 and MgCl2 (PBS(+) (Invitrogen)) and the inserts transferred to a new Corning® HTS Transwell®-96 well receiver plate (Sigma). The cells were incubated with fresh PBS(+) (75 μl per insert and 225 μl per well) for 60 minutes at 37° C., 5% CO2. The PBS(+) was gently aspirated and replaced with 75 μl per insert of either 5 mM D-glucose (Sigma)±test compound or 25 mM D-glucose±test compound in triplicate and 225 μl per well of PBS(+) quickly added to each well. The 5 mM glucose wells and the 25 mM glucose wells were incubated at 37° C., 5% CO2 for 15 minutes and 30 minutes, respectively. […] The cell inserts were transferred to a new receiver plate, the supernatant gently aspirated from the cells and replaced with 100 μl of 100 μM of Lucifer Yellow (Sigma) solution to confirm the integrity of the monolayers. 225 μl of PBS(+) was added to each well and incubated at 37° C., 5% CO2 for 1 hour. The cell inserts were then discarded and the permeability of the membranes to Lucifer Yellow checked by measuring the fluorescence of the samples at 485 nm (excitation) and 530 nm (emission) on a Spectramax Gemini EM fluorescence microplate reader.
The amount of glucose transported across the cell monolayers was measured using a glucose assay based on Invitrogen's Amplex Red Glucose/Glucose oxidase Assay Kit. Briefly, 50 μl of each test sample was transferred to a black sided/clear bottom 96-well plate (Greiner Bio-One) to which 100 μl of reaction buffer (0.5 μl 10 mM Ampliflu Red, 1 μl 10 U/ml Horse Radish peroxidase, 1 μl 100 U/ml glucose oxidase and 97.5 μl PBS (all Sigma)) was added. After 10 minutes incubation at room temperature, the fluorescence of the samples was measured at 530 nm (excitation) and 590 nm (emission) on a Spectramax Gemini EM fluorescence microplate reader and the glucose concentration extrapolated from a standard curve.
At higher D-glucose concentrations, the SGLT1 transporter becomes saturated and consequently the majority of glucose transport across the monolayer is driven by the low affinity, high capacity GLUT2 transporter that is targeted to the apical membrane only following an initial SGLT1-dependent transport of glucose.
The next test has as its target T2, GLUT2 (Homo sapiens, UniProt P11168).
T2 sequence (P11168 1-524): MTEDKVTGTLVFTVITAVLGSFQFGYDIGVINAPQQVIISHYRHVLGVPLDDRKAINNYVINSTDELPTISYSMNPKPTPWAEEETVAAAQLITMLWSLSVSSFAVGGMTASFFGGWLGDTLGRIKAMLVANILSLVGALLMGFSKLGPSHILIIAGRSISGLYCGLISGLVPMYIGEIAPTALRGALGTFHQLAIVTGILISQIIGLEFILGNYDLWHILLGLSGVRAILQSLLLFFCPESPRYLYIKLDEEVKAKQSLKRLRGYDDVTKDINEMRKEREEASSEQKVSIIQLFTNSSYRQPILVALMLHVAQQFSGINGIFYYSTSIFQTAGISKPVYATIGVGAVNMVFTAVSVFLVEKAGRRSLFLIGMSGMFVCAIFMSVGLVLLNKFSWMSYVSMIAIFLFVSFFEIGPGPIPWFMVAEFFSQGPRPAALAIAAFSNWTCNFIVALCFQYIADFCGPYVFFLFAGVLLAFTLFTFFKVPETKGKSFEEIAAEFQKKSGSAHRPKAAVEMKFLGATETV
Put plainly: Glucose transport inhibitor cell screening assay, 25 mM D-glucose for 30 minutes. Particulars: for inhibition at 300 µM: Caco-2, read-out: % Glucose transport inhibiton 25 mM; for identified as inhibitors of GLUT2: Caco-2 cell assay.

Another test relates to SGLT1 and GLUT2. Put plainly: Assigned class of transporter inhibited, from Caco-2 screening at 5 mM and 25 mM D-glucose. Particulars: from % inhibition at 5 mM and 25 mM D-glucose; compound 300 μM. Type of test: cell-based, human.
[4] abbreviates: flavonoid monoglucoside 300 uM alone, added at 5 mM glucose step only (NC at 25 mM).
Where [5] appears, read: flavonoid monoglucoside 300 uM alone, added at 25 mM glucose step only (NC at 5 mM).
Setting [6] is: homoisoflavonoid 2.5 uM alone, added at 25 mM glucose step (NC at 5 mM).
Where [7] appears, read: homoisoflavonoid 5 uM alone, added at 25 mM glucose step (NC at 5 mM).
Setting [8] is: homoisoflavonoid 10 uM alone, added at 25 mM glucose step (NC at 5 mM).

Values joined by “and” are separate entries in the source; they are usually repeats but may differ in a detail not shown here. Equal entries are not always repeated.

Take `O=c1cc(-c2ccc(O)cc2)oc2c([C@@H]3O[C@H](CO)[C@@H](O)[C@H](O)[C@H]3O)c(O)cc(O)c12` [Apigenin-8-C-glucoside]: the “Cumulative (AVE) glucose transport” value in test [1] (setting [4]) is listed as 291.89; in test [1] (setting [5]), 287.58. The SGLT1 inhibitory activity result at SGLT1 [2] is on record as “SGLT1 inhibitors”.
On to `OC[C@H]1O[C@@H](Oc2cc3c(O)cc(O)cc3[o+]c2-c2cc(O)c(O)c(O)c2)[C@H](O)[C@@H](O)[C@@H]1O.[Cl-]` [Delphinidin-3-O-glucoside chloride, delphinidin-3-O-glucoside chloride], for which the “Cumulative (AVE) glucose transport” value came to 220.62 in test [1] (setting [4]) and 227.60 in test [1] (setting [5]). Moreover, the “identified as inhibitors of SGLT1” value on SGLT1 [3] is recorded as “inhibitors of SGLT1”. Further, the “% Glucose transport inhibiton 5 mM” value at SGLT1 [3] (compound 300 μM in DMSO, 5 mM D-glucose, 15 minutes, Caco-2 monolayer, triplicate) is recorded as 41.00 ± 3.60%. For the same molecule, the “% Glucose transport inhibiton 25 mM” value at GLUT2 (compound 300 μM in DMSO, 25 mM D-glucose, 30 minutes, Caco-2 monolayer, triplicate) was determined as 12.82 ± 1.19%. Besides, in the test on SGLT1 and GLUT2, the “Class (assigned class of transporter inhibited)” value was “SGLT1”.
As to `Cc1c(O)cc2c(c1O)C(=O)C(Cc1ccc(O)cc1)CO2` (stereo not shown) [EA1, 5,7-dihydroxy-3-(4′-hydroxybenzyl)-6-methylchroman-4-one], the “Cumulative (AVE) glucose transport” value is 339.2 in test [1] (setting [6]); 284.6 in test [1] (setting [7]); 301.50 and 232.03 in test [1] (setting [8]). Further, the values for the inhibition at 300 µM at SGLT1 [3] and on GLUT2 were 90.7 ± 1.4% and 66.6 ± 5.21%, respectively. In addition, the “identified as inhibitors of GLUT2” value at GLUT2 is on record as “inhibitors of GLUT2”. Also, the “Class (assigned class of transporter inhibited)” value with SGLT1 and GLUT2 is “GLUT2 (GLUT2 inhibitors having ≥20% inhibition at both 5 mM and 25 mM D-glucose levels)”.
Consider `COc1c(O)c(C)c(O)c2c1OCC(Cc1ccc(O)cc1)C2=O` (stereo not shown) [EA2, 5,7-dihydroxy-3-(4′-hydroxybenzyl)-6-methyl-8-methoxychroman-4-one], for which, in test [1] (setting [8]), the “Cumulative (AVE) glucose transport” value was 283.98. Also, on SGLT1 [3], the inhibition at 300 µM was determined as 89.9 ± 0.06%. Further, on GLUT2, the inhibition at 300 µM was 63 ± 2.94% and the “identified as inhibitors of GLUT2” value is listed as “inhibitors of GLUT2”. Also, the “Class (assigned class of transporter inhibited)” value in the test with SGLT1 and GLUT2 is “GLUT2 (GLUT2 inhibitors having ≥20% inhibition at both 5 mM and 25 mM D-glucose levels)”.
On to `Cc1c(O)c(C)c2c(c1O)C(=O)C(Cc1ccc(O)cc1)CO2` (stereo not shown) [EA3, 5,7-dihydroxy-3-(4′-hydroxybenzyl)-6,8-dimethylchroman-4-one], for which the “Cumulative (AVE) glucose transport” value in test [1] (setting [6]) came to 291.33. Moreover, the inhibition at 300 µM on SGLT1 [3] was 91.15 ± 0.46%. At GLUT2, the inhibition at 300 µM was 67.4 ± 5.87% and the “identified as inhibitors of GLUT2” value is given as “inhibitors of GLUT2”. Further, in the test with SGLT1 and GLUT2, the “Class (assigned class of transporter inhibited)” value was “GLUT2 (GLUT2 inhibitors having ≥20% inhibition at both 5 mM and 25 mM D-glucose levels)”.
Turning to `O=c1c(O[C@@H]2O[C@H](CO)[C@@H](O)[C@H](O)[C@H]2O)c(-c2ccc(O)cc2)oc2cc(O)cc(O)c12` [Kaempferol-3-glucoside], the “Cumulative (AVE) glucose transport” value in test [1] (flavonoid monoglucoside 150 uM alone, added at 5 mM glucose step only (NC at 25 mM)) is 297.72; in test [1] (flavonoid monoglucoside 150 uM alone, added at 25 mM glucose step only (NC at 5 mM)) it was 290.49. The SGLT1 inhibitory activity result on SGLT1 [2] is “SGLT1 inhibitors”.
Regarding `O=c1cc(-c2ccc(O)c(O)c2)oc2cc(O[C@@H]3O[C@H](CO)[C@@H](O)[C@H](O)[C@H]3O)cc(O)c12` [Luteolin-7-glucoside], the “Cumulative (AVE) glucose transport” value in test [1] (flavonoid monoglucoside 300 uM alone, added at 5 mM glucose step only (NC at 25 mM), listed as L7G) is 220.63 and 301.4; in test [1] (flavonoid monoglucoside 300 uM alone, added at 25 mM glucose step only (NC at 5 mM), listed as L7G), 256.73 and 281.9. Also, the SGLT1 inhibitory activity entry at SGLT1 [2] is on record as “SGLT1 inhibitors”.
With `Cc1c(O)c(C)c2c(c1O)C(=O)[C@H](Cc1ccc3c(c1)OCO3)CO2` [MOA, methylophiopogonanone A], in test [1] (setting [7]), the “Cumulative (AVE) glucose transport” value is 231.69. The inhibition at 300 µM on SGLT1 [3] came to 39.3 ± 2.17%. Moreover, on GLUT2, the inhibition at 300 µM is 27.7 ± 3.7% and the “identified as inhibitors of GLUT2” value is recorded as “inhibitors of GLUT2”. In addition, the “Class (assigned class of transporter inhibited)” value with SGLT1 and GLUT2 is “GLUT2 (GLUT2 inhibitors having ≥20% inhibition at both 5 mM and 25 mM D-glucose levels)”.
`COc1ccc(C[C@@H]2COc3c(C)c(O)c(C)c(O)c3C2=O)cc1` [MOB, methylophiopogonanone B]: the “Cumulative (AVE) glucose transport” value in test [1] (setting [7]) came out at 200.59. Also, the inhibition at 300 µM stood at 46.2 ± 2.04% on SGLT1 [3] and 30.6 ± 3.2% at GLUT2. In addition, on GLUT2, the “identified as inhibitors of GLUT2” value is reported as “inhibitors of GLUT2”. In the test on SGLT1 and GLUT2, the “Class (assigned class of transporter inhibited)” value was “GLUT2 (GLUT2 inhibitors having ≥20% inhibition at both 5 mM and 25 mM D-glucose levels)”.
With `O=C1CC(c2ccc(O)cc2)Oc2cc(O[C@@H]3O[C@H](CO)[C@@H](O)[C@H](O)[C@H]3O)cc(O)c21` (stereo partly shown) [Naringenin-7-O-glucoside], the “Cumulative (AVE) glucose transport” value is 215.32 in test [1] (setting [4]) and 236.65 in test [1] (setting [5]). Moreover, the SGLT1 inhibitory activity result at SGLT1 [2] is listed as “SGLT1 inhibitors”.
As to `O=C(CCc1ccc(O)cc1)c1c(O)cc(O)cc1O[C@@H]1O[C@H](CO)[C@@H](O)[C@H](O)[C@H]1O` [Phloridzin, reference compound], the inhibition at 300 µM on GLUT2 was determined as 14.3 ± 0.84%.
As for `COc1c(O[C@@H]2O[C@H](CO)[C@@H](O)[C@H](O)[C@H]2O)cc2occ(-c3ccc(O)cc3)c(=O)c2c1O` [Tectoridin], the “Cumulative (AVE) glucose transport” value was 346.92 and 321.4 and 298.40 in test [1] (flavonoid monoglucoside 300 uM alone, added at 5 mM glucose step only (NC at 25 mM), listed as T); 395.85 and 304.5 and 298.98 in test [1] (flavonoid monoglucoside 300 uM alone, added at 25 mM glucose step only (NC at 5 mM), listed as T). The inhibition at 300 µM came to 29.4 ± 0.62% at SGLT1 [3] and 4.92 ± 2.08% at GLUT2. Besides, the “identified as inhibitors of SGLT1” value on SGLT1 [3] was “inhibitors of SGLT1”. For the same molecule, in the test with SGLT1 and GLUT2, the “Class (assigned class of transporter inhibited)” value is on record as “SGLT1”.
